Data as given in patent publication US8192962B2, “Processes for detecting toxic substances” (Daikin Industries, Ltd., priority 2001, dated 2012).

Test system: Metabolism protein genes
Test: DNA chip mRNA expression in yeast, metabolism protein genes (Table 7)
Assay type: cell-based, Saccharomyces cerevisiae S288C
Procedure: Yeast (Saccharomyces cerevisiae S288C (α SUC2mal mel gap2 CUP1)) were incubated at 25° C. on YPD medium (yeast extract 1%, polypepton 2%, glucose 2%). One of toxic chemical substances was added to the cells at logarithmic growth phase, and the cells were further incubated for two hours. Cells were cultured without any chemical substance in the same condition, and were used as control. Concentrations of the chemical substances were defined to inhibit the growth of the yeast but not lead to death.
After completion of the incubation, the culture was centrifuged to collect the cells. To the cells, sodium acetate buffer (50 mM sodium acetate, 10 mM EDTA, 1% SDS) was added, and the mixture was shaken at 65° C. for five minutes, followed by returning to room temperature, and obtaining the supernatant, of which the procedures were repeated two times. To the supernatant, ½ amount of a solution of phenol/chloroform was added, and the mixture was centrifuged to give a supernatant, which was added with an equal amount of chloroform, and the mixture was centrifuged to give a supernatant. To the supernatant, an equal amount of isopropanol containing 0.3 M sodium acetate was added, and the mixture was allowed to stand at room temperature for 30 minutes, after which the mixture was centrifuged to give a sediment of the whole RNAs. Seventy % ethanol was added to the sediment, and the mixture was again centrifuged to give a sediment, which was then dried and dissolved in water. mRNA was isolated from the whole RNAs as followings. In view of the fact that a poly A chain is attached to the 3′ terminus of mRNA, a polynucleotide having a poly T structure which was immobilized on the surface of latex beads was used to trap the mRNA, and then the mRNA was washed and eluted with spine column (Oligotex-dT30<Super>mRNA Purification Kit, Takara). Reverse transcription of the mRNA was conducted with a reverse transcriptase (Super Script II Reverse Transcriptase; catalogue No. 18064-014, GibcoBRL) using fluorescence-labeled nucleotides to give cDNAs that were introduced with Cy3-dUTP or Cy5-dUTP during the reverse transcription.
The labeled cDNAs were dissolved in TE buffer (10mM Tris-HCl/1 mM EDTA, pH8.0), and the solution was dropped on the DNA chip containing the whole genes of yeast (DNA Chip Research Inc. Japan) so that the cDNAs were hybridized on the DNA chip at 65° C. for over 12 hours. The fluoresces intensity of the DNA chip was read with a scanner, and the ratio relative to the fluorescence intensity resulting from the absence of chemical substance was estimated as the following, which is shown in Tables 1 to 9: […]

CN(C)C(=S)SSC(=S)N(C)C [(10), Tetramethylthiuram disulfide]
The level of expressed mRNA in the presence of chemical substance/The level of expressed mRNA in the absence of chemical substance (yeast gene YNL037C): 3.2
The level of expressed mRNA in the presence of chemical substance/The level of expressed mRNA in the absence of chemical substance (yeast gene YNL045W): 1.1
The level of expressed mRNA in the presence of chemical substance/The level of expressed mRNA in the absence of chemical substance (yeast gene YNL104C): 2.0
The level of expressed mRNA in the presence of chemical substance/The level of expressed mRNA in the absence of chemical substance (yeast gene YNL106C): 1.4
The level of expressed mRNA in the presence of chemical substance/The level of expressed mRNA in the absence of chemical substance (yeast gene YNL169C): 1.1
level of expressed mRNA in the presence/in the absence of chemical substance (yeast gene YNL192W): 1.8
The level of expressed mRNA in the presence of chemical substance/The level of expressed mRNA in the absence of chemical substance (yeast gene YNL231C): 1.3
The level of expressed mRNA in the presence of chemical substance/The level of expressed mRNA in the absence of chemical substance (yeast gene YNL322C): 0.8
The level of expressed mRNA in the presence of chemical substance/The level of expressed mRNA in the absence of chemical substance (yeast gene YNL331C): 36.3
The level of expressed mRNA in the presence of chemical substance/The level of expressed mRNA in the absence of chemical substance (yeast gene YNL332W): 2.1
The level of expressed mRNA in the presence of chemical substance/The level of expressed mRNA in the absence of chemical substance (yeast gene YNR002C): 1.6
The level of expressed mRNA in the presence of chemical substance/The level of expressed mRNA in the absence of chemical substance (yeast gene YNR019W): 1.9
The level of expressed mRNA in the presence of chemical substance/The level of expressed mRNA in the absence of chemical substance (yeast gene YNR033W): 4.2
The level of expressed mRNA in the presence of chemical substance/The level of expressed mRNA in the absence of chemical substance (yeast gene YNR059W): 1.4
The level of expressed mRNA in the presence of chemical substance/The level of expressed mRNA in the absence of chemical substance (yeast gene YOL058W): 15.7
level of expressed mRNA in the presence/in the absence of chemical substance (yeast gene YOL086C): 1.2
level of expressed mRNA in the presence/in the absence of chemical substance (yeast gene YOL108C): 0.9
level of expressed mRNA in the presence/in the absence of chemical substance (yeast gene YOL116W): 1.8
The level of expressed mRNA in the presence of chemical substance/The level of expressed mRNA in the absence of chemical substance (yeast gene YOL126C): 2.4
The level of expressed mRNA in the presence of chemical substance/The level of expressed mRNA in the absence of chemical substance (yeast gene YOL143C): 1.0
The level of expressed mRNA in the presence of chemical substance/The level of expressed mRNA in the absence of chemical substance (yeast gene YOL153C): 3.2
level of expressed mRNA in the presence/in the absence of chemical substance (yeast gene YOL156W): 2.1
The level of expressed mRNA in the presence of chemical substance/The level of expressed mRNA in the absence of chemical substance (yeast gene YOL165C): 23.3
level of expressed mRNA in the presence/in the absence of chemical substance (yeast gene YOR002W): 0.9
level of expressed mRNA in the presence/in the absence of chemical substance (yeast gene YOR085W): 0.6
The level of expressed mRNA in the presence of chemical substance/The level of expressed mRNA in the absence of chemical substance (yeast gene YOR099W): 0.7
level of expressed mRNA in the presence/in the absence of chemical substance (yeast gene YOR103C): 0.9
level of expressed mRNA in the presence/in the absence of chemical substance (yeast gene YOR108W): 1.1
level of expressed mRNA in the presence/in the absence of chemical substance (yeast gene YOR128C): 0.4
The level of expressed mRNA in the presence of chemical substance/The level of expressed mRNA in the absence of chemical substance (yeast gene YOR130C): 1.7
The level of expressed mRNA in the presence of chemical substance/The level of expressed mRNA in the absence of chemical substance (yeast gene YOR136W): 3.4
level of expressed mRNA in the presence/in the absence of chemical substance (yeast gene YOR142W): 1.5
level of expressed mRNA in the presence/in the absence of chemical substance (yeast gene YOR176W): 0.5
level of expressed mRNA in the presence/in the absence of chemical substance (yeast gene YOR178C): 1.7
The level of expressed mRNA in the presence of chemical substance/The level of expressed mRNA in the absence of chemical substance (yeast gene YOR221C): 1.7
The level of expressed mRNA in the presence of chemical substance/The level of expressed mRNA in the absence of chemical substance (yeast gene YOR226C): 5.9
level of expressed mRNA in the presence/in the absence of chemical substance (yeast gene YOR251C): 0.8
The level of expressed mRNA in the presence of chemical substance/The level of expressed mRNA in the absence of chemical substance (yeast gene YOR336W): 1.5
The level of expressed mRNA in the presence of chemical substance/The level of expressed mRNA in the absence of chemical substance (yeast gene YOR347C): 0.9
level of expressed mRNA in the presence/in the absence of chemical substance (yeast gene YOR348C): 0.4
The level of expressed mRNA in the presence of chemical substance/The level of expressed mRNA in the absence of chemical substance (yeast gene YPL017C): 6.7
level of expressed mRNA in the presence/in the absence of chemical substance (yeast gene YPL028W): 0.8
level of expressed mRNA in the presence/in the absence of chemical substance (yeast gene YPL057C): 1.4
level of expressed mRNA in the presence/in the absence of chemical substance (yeast gene YPL135W): 2.8
level of expressed mRNA in the presence/in the absence of chemical substance (yeast gene YPL148C): 1.5
The level of expressed mRNA in the presence of chemical substance/The level of expressed mRNA in the absence of chemical substance (yeast gene YPR026W): 3.1
level of expressed mRNA in the presence/in the absence of chemical substance (yeast gene YPR113W): 0.8
level of expressed mRNA in the presence/in the absence of chemical substance (yeast gene YPR165W): 0.7
The level of expressed mRNA in the presence of chemical substance/The level of expressed mRNA in the absence of chemical substance (yeast gene YPR167C): 9.0
level of expressed mRNA in the presence/in the absence of chemical substance (yeast gene YPR183W): 0.6
